ChEMBL document CHEMBL6121051, “Dendritic Antifungal Peptides as Potent Agents against Drug-Resistant Candida albicans and Biofilm” (J Med Chem, 2025)
Converted amounts (≈) assume the structure as drawn. The source made the active and inactive calls. The rule behind the calls is not given here. Positions of bridges follow the written chain, without caps; N, C: chain ends. Residues, ends and D or L forms follow the SMILES beside them. Chains are numbered I, II in the order given. *: point of attachment. Butyryl = CCCC(=O)*

Key:
Cell membrane [1] = assay: Disruption of cytoplasmic membrane in Candida albicans 2.2086 assessed as increase in membrane depolarization at 1XMIC to 4XMIC measured after 500 secs by diSC3-5 dye based potentiometric analysis; type: subcellular; details: time 500.0 sec
Candida albicans [2] = assay: Antifungal activity against fluconazole-resistant Candida albicans 56214 assessed as inhibition of fungal growth incubated for 48 hrs; type: functional
Candida albicans [3] = assay: Antifungal activity against Candida albicans assessed as inhibition of fungal growth incubated for 48 hrs in presence of ZnCl2; type: functional, organism-based
Candida albicans [4] = assay: Antifungal activity against Candida albicans assessed as inhibition of fungal growth preincubated with 4 mg/ml trypsin for 8 hrs followed by incubation with fungus for 48 hrs; type: functional, organism-based
[5] = Cytotoxicity against human HEK293T cells assessed as cell survival rate at 128 ug/ml incubated for 4 hrs by MTT assay; type: toxicity, cell-based, HEK-293T; details: dose 128 µg/ml, read-out: Activity
Candida albicans [6] = assay: Antifungal activity against Candida albicans assessed as inhibition of fungal growth incubated for 48 hrs in presence of CaCl2; type: functional, organism-based
Cell membrane [7] = assay: Induction of cell membrane damage in Candida albicans assessed as scattered distribution of cell wall and cell membrane structures, loss of integrity and leakage of contents at 16 uM incubated for 1 hr by scanning electron microscopy; type: subcellular
[8] = Drug penetration into mature fluconazole-resistant Candida albicans 56214 biofilms assessed as increase in green fluorescence intensity at 8 to 16 uM using FITC-labeled compound incubated in dark for 3 hrs by DAPI staining based laser confocal microscopy; type: ADME; details: dose 8-16 µM
Candida albicans [9] = assay: Antifungal activity against Candida albicans 14936 assessed as inhibition of fungal growth incubated for 48 hrs; type: functional
Candida albicans [10] = assay: Fungicidal activity against fluconazole-resistant Candida albicans 56214 assessed as killing effect within biofilms by measuring increase in red fluorescence intensity at 8 uM incubated for 3 hrs by SYTO9/PI staining based fluorescence microscopy; type: functional
Candida albicans [11] = assay: Antifungal activity against Candida albicans 2.3989 assessed as inhibition of fungal growth incubated for 48 hrs; type: functional
Candida albicans [12] = assay: Antifungal activity against Candida albicans assessed as inhibition of fungal growth compound preincubated with upto 8 mg/ml proteinase K for 4 hrs followed by incubation with fungus for 48 hrs; type: functional, organism-based
Cell wall [13] = assay: Induction of cell wall permeability in Candida albicans 2.2086 at 16 uM by NPN probe based fluorescence analysis; type: subcellular
Candida albicans [14] = assay: Antifungal activity against fluconazole-resistant Candida albicans 56214 infected in ICR mouse assessed as log reduction in fungal burden on the infected skin at 5 mg/ml administered topically bid for 3 days starting at 12 hrs post-infection and measured after 7 days; type: functional; details: time 7 day
Cell membrane [15] = assay: Induction of cell membrane damage in Candida albicans assessed as scattered distribution of cell wall and cell membrane structures, loss of integrity and leakage of contents at 16 uM incubated for 1 hr by transmission electron microscopy; type: subcellular
Candida albicans [16] = assay: Antifungal activity against fluconazole-resistant Candida albicans 56214 infected in ICR mouse assessed as reduction in oxidative stress by measuring decrease in ROS accumulation in skin wounds at 5 mg/ml administered topically bid for 3 days starting at 12 hrs post-infection and measured after 7 days by fluorescence staining based analysis; type: functional, organism-based; details: time 7.0 day
Candida albicans [17] = assay: Antifungal activity against Candida albicans assessed as inhibition of fungal growth incubated for 48 hrs in presence of NH4Cl; type: functional, organism-based
HEK-293T [18] = assay: Cytotoxicity against human HEK293T cells assessed as cell viability at 8 to 128 ug/ml incubated for 4 hrs by MTT assay; type: toxicity, cell-based; details: dose 8-128 µg/ml
Candida albicans [19] = assay: Antifungal activity against fluconazole-resistant Candida albicans 56214 infected in ICR mouse assessed as reduction in TNF-alpha expression in skin wound at 5 mg/ml administered topically bid for 3 days starting at 12 hrs post-infection and measured after 7 days by immunofluorescence analysis; type: functional, organism-based; details: time 7.0 day
Candida albicans [20] = assay: Antifungal activity against Candida albicans assessed as inhibition of fungal growth incubated for 48 hrs in presence of MgCl2; type: functional, organism-based
Candida albicans [21] = assay: Fungicidal activity against fluconazole-resistant Candida albicans 56214 assessed as killing effect by measuring orange fluorescence at 8 uM incubated for 1 hr by SYTO9/PI staining based fluorescence microscopy; type: functional
Candida albicans [22] = assay: Induction of ROS production in Candida albicans 2.2086 assessed as increase in intracellular ROS accumulation at <4 uM incubated for 1 hr by DCFH-DA staining based fluorescence analysis; type: functional, organism-based
RAW264.7 = assay: Cytotoxicity against mouse RAW264.7 cells assessed as damage to cells at 4XMIC incubated for 8 hrs by Calcein-AM/PI staining based fluorescence microscopy; type: toxicity, cell-based; details: raw264.7, 8 h
Candida albicans [23] = assay: Induction of morphological changes in Candida albicans 2.2086 at 8 to 16 uM incubated for 2 hrs by fluorescence cell imaging system; type: functional, organism-based; details: dose 8-16 µM
Candida albicans [24] = assay: Antifungal activity against Candida albicans assessed as inhibition of fungal growth compound preincubated with upto 8 mg/ml chymotrypsin for 4 hrs followed by incubation with fungus for 48 hrs; type: functional, organism-based
[25] = Drug localization in Candida albicans cell membrane using FITC-labeled compound by FITC/PI staining based confocal microscopy; type: ADME, cell membranes
Candida albicans [26] = assay: Antifungal activity against Candida albicans assessed as inhibition of fungal growth incubated for 48 hrs in presence of KCl; type: functional, organism-based
Candida albicans [27] = assay: Antifungal activity against fluconazole-resistant Candida albicans 56214 infected in ICR mouse assessed as wound healing with appearance of new skin tissue at 5 mg/ml administered topically bid for 3 days starting at 12 hrs post-infection and measured for 6 days; type: functional, organism-based; details: time 6.0 day
Candida albicans [28] = assay: Antifungal activity against Candida albicans assessed as inhibition of fungal growth preincubated with 8 mg/ml proteinase K for 8 hrs followed by incubation with fungus for 48 hrs; type: functional, organism-based
Candida albicans [29] = assay: Fungicidal killing kinetic activity against fluconazole-resistant Candida albicans 56214 assessed as killing of fungi at 1XMIC to 4XMIC incubated with fungus in PBS solution for 3 mins followed by culturing on YPD plate for 48 hrs; type: functional, organism-based; details: time 2883.0 min
Candida albicans [30] = assay: Antifungal activity against Candida albicans SP 3903 assessed as inhibition of fungal growth incubated for 48 hrs; type: functional
Candida albicans [31] = assay: Antifungal activity against Candida albicans 58288 assessed as inhibition of fungal growth incubated for 48 hrs; type: functional
Cell membrane [32] = assay: Disruption of cytoplasmic membrane in Candida albicans 2.2086 assessed as increase in membrane depolarization at 1XMIC by diSC3-5 dye based potentiometric analysis
Candida albicans [33] = assay: Antifungal activity against fluconazole-resistant Candida albicans 56214 infected in ICR mouse assessed as reduction in severity of skin infection at 5 mg/ml administered topically bid for 3 days starting at 12 hrs post-infection and measured after 7 days by PAS staining based analysis; type: functional, organism-based; details: time 7.0 day
Candida albicans [34] = assay: Antifungal activity against Candida albicans assessed as inhibition of fungal growth compound preincubated with upto 4 mg/ml trypsin for 4 hrs followed by incubation with fungus for 48 hrs; type: functional, organism-based
Candida albicans [35] = assay: Antifungal activity against Candida albicans assessed as inhibition of fungal growth incubated for 48 hrs in presence of NaCl; type: functional, organism-based
Candida albicans [36] = assay: Antifungal activity against Candida albicans cgmcc 2.2086 assessed as inhibition of fungal growth incubated for 48 hrs; type: functional
Cell wall [37] = assay: Induction of cell wall permeability in Candida albicans 2.2086 assessed as increase in cell wall damage by NPN probe based fluorescence analysis; type: subcellular; details: dose 4-128 µM
Candida albicans [38] = assay: Antifungal activity against Candida albicans SP 3902 assessed as inhibition of fungal growth incubated for 48 hrs; type: functional
[39] = Drug localization in Candida albicans cell membrane using FITC-labeled compound at 8 uM incubated for 3 hrs by DAPI staining based fluorescence microscopy; type: ADME, cell membranes
Candida albicans [40] = assay: Antifungal activity against fluconazole-resistant Candida albicans 56214 infected in ICR mouse assessed as reduction in IL-6 expression in skin wound at 5 mg/ml administered topically bid for 3 days starting at 12 hrs post-infection and measured after 7 days by immunofluorescence analysis; type: functional, organism-based; details: time 7.0 day
Candida albicans [41] = assay: Inhibition of biofilm formation of fluconazole-resistant Candida albicans 56214 at 8 uM incubated for 48 hrs by crystal violet staining based analysis; type: functional
HEK-293T [42] = assay: Cytotoxicity against human HEK293T cells assessed as damage to cells at 4XMIC incubated for 8 hrs by Calcein-AM/PI staining based fluorescence microscopy; type: toxicity, cell-based
[43] = Toxicity against human RBC assessed as hemolysis rate at 128 ug/ml incubated for 1 hr; type: cell-based, Erythrocyte; details: red blood cells (RBC), dose 128 µg/ml, read-out: Activity
Candida albicans [44] = assay: Antifungal activity against Candida albicans assessed as inhibition of fungal growth incubated for 48 hrs in presence of FeCl3; type: functional, organism-based
Candida albicans [45] = assay: Antifungal activity against fluconazole-resistant Candida albicans 56214 infected in ICR mouse assessed as elimination of fungal hyphae on the infected skin at 5 mg/ml administered topically bid for 3 days starting at 12 hrs post-infection and measured after 7 days by PAS staining; type: functional, organism-based; details: time 7.0 day
Candida albicans [46] = assay: Antifungal activity against Candida albicans SP 3931 assessed as inhibition of fungal growth incubated for 48 hrs; type: functional
Candida albicans [47] = assay: Antifungal activity against Candida albicans assessed as inhibition of fungal growth preincubated with 8 mg/ml chymotrypsin for 8 hrs followed by incubation with fungus for 48 hrs; type: functional, organism-based
Candida albicans [48] = assay: Antifungal activity against Candida albicans 17546 assessed as inhibition of fungal growth incubated for 48 hrs; type: functional

Structure (SMILES): CCCC(=O)NCC(=O)NCC(=O)NCC(=O)N[C@@H](CCCCNC(=O)[C@@H]1CCCN1C(=O)[C@H](CCCNC(=N)N)NC(=O)[C@@H]1CCCN1C(=O)[C@H](CCCNC(=N)N)NC(=O)[C@@H]1CCCN1C(=O)[C@@H](N)CCCNC(=N)N)C(=O)N[C@@H](CCCCNC(=O)[C@@H]1CCCN1C(=O)[C@H](CCCNC(=N)N)NC(=O)[C@@H]1CCCN1C(=O)[C@H](CCCNC(=N)N)NC(=O)[C@@H]1CCCN1C(=O)[C@@H](N)CCCNC(=N)N)C(=O)N[C@@H](CCCNC(=N)N)C(=O)N1CCC[C@H]1C(=O)N[C@@H](CCCNC(=N)N)C(=O)N1CCC[C@H]1C(=O)N[C@@H](CCCNC(=N)N)C(=O)N1CCC[C@H]1C(N)=O (I: Butyryl-GGGKKRPRPRP-NH2 / II: H-RPRPRP / III: H-RPRPRP; amide I:4-II:C, I:5-III:C)
- Activity (Cell membrane [1]): Active
- MIC (Candida albicans [2]): 4 µM (≈ 11.2 µg/mL)
- Activity (Candida albicans [3]): Active
- Activity (Candida albicans [4]): Active
- viability at 4 h, 128 ug/ml [5]: 95%
- Activity (Candida albicans [6]): Active
- Activity (Cell membrane [7]): Active
- Drug uptake [8]: Active
- MIC (Candida albicans [9]): 4 µM (≈ 11.2 µg/mL)
- Activity (Candida albicans [10]): >90%
- MIC (Candida albicans [11]): 4 µM (≈ 11.2 µg/mL)
- Activity (Candida albicans [12]): Active
- Activity (Cell wall [13]): 100%
- log(activity) (Candida albicans [14]): ~1.7
- Activity (Cell membrane [15]): Active
- Activity (Candida albicans [16]): Active
- Activity (Candida albicans [17]): Active
- Activity (HEK-293T [18]): Non-toxic
- Activity (Candida albicans [19]): Active
- Activity (Candida albicans [20]): Active
- Activity (Candida albicans [21]): 90%
- Activity (Candida albicans [22]): Active
- Activity (RAW264.7): Non-toxic
- Activity (Candida albicans [23]): Active
- Activity (Candida albicans [24]): Active
- Drug uptake [25]: Active
- Activity (Candida albicans [26]): Active
- Activity (Candida albicans [27]): Active
- Activity (Candida albicans [28]): Active
- Activity (Candida albicans [29]): Active
- MIC (Candida albicans [30]): 4 µM (≈ 11.2 µg/mL)
- MIC (Candida albicans [31]): 8 µM (≈ 22.4 µg/mL)
- Activity (Cell membrane [32]): Active; Effective Depolarization Observed
- Activity (Candida albicans [33]): Active
- Activity (Candida albicans [34]): Active
- Activity (Candida albicans [35]): Active
- MIC (Candida albicans [36]): 4 µM (≈ 11.2 µg/mL)
- Activity (Cell wall [37]): Dose-dependent-effect
- MIC (Candida albicans [38]): 4 µM (≈ 11.2 µg/mL)
- Drug uptake [39]: > 90%
- Activity (Candida albicans [40]): Active
- inhibition at 8 µM (Candida albicans [41]): 100%
- Activity (HEK-293T [42]): Non-toxic
- hemolysis at 1 h, 128 ug/ml [43]: < 2%
- Activity (Candida albicans [44]): Active
- Activity (Candida albicans [45]): Active
- MIC (Candida albicans [46]): 4 µM (≈ 11.2 µg/mL)
- Activity (Candida albicans [47]): Active
- MIC (Candida albicans [48]): 16 µM (≈ 44.7 µg/mL)
